Test results as given in patent publication US10364222B2, “Cyclic amine derivative and medical use thereof” (Toray Industries, Inc., priority 2016, dated 2019).

What was measured:
[1] = target: T1, ligand-binding domain of RORγ (RORγ-LBD) (Homo sapiens, UniProt P51449); assay: Inhibitory effect on RORγ-coactivator binding (LanthaScreen TR-FRET RORγ Coactivator Assay); conditions: at 33 μmol/L of the test compound; read-out: RORγ-coactivator binding inhibition rate (%)
T1 construct: purchased Invitrogen
T1 sequence (P51449 269-508 limits assumed): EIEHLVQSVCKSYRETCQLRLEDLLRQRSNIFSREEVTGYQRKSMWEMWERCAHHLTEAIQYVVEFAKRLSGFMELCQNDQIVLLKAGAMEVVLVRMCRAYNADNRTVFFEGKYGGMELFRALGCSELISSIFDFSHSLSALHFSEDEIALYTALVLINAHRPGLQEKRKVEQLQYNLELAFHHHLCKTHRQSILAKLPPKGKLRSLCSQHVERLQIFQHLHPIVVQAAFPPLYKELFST
Protocol: The inhibitory effect of the cyclic amine derivative (I) or a pharmacologically acceptable salt thereof on the binding between a ligand-binding domain of RORγ (hereinafter referred to as RORγ-LBD) and a coactivator was evaluated using Invitrogen's LanthaScreen™TR-FRET Retinoid-Related Orphan Receptor (ROR) gamma Coactivator Assay kit utilizing time-resolved fluorescence energy transfer (TR-FRET).
The test compound was dissolved in DMSO and diluted with TR-FRET Coregulator Buffer D (Invitrogen) containing 5 mmol/L of DTT to have a final DMSO concentration of 1% before use. To each well of a 384-well black plate (Corning Inc.), 4 nmol/L of GST-fused RORγ-LBD (Invitrogen) diluted with the buffer mentioned above and the test compound were added. A well without addition of the test compound and without addition of GST-fused RORγ-LBD (background) and a well without addition of the test compound and with addition of GST-fused RORγ-LBD (control) were prepared. Next, 150 nmol/L of fluorescein-labeled TRAP220/DRIP-2 (Invitrogen) diluted with the buffer mentioned above and 32 nmol/L of terbium-labeled anti-GST antibody (Invitrogen) were added to each well. After incubating the plate at room temperature for 16 to 24 hours, the fluorescence at 495 nm and 520 nm when excited at 320 nm was measured for each well and the ratio (fluorescence value at 520 nm/fluorescence value at 495 nm) was calculated.
The fold change with addition of the test compound (ratio with addition of the test compound/ratio of the background), the fold change of the control (ratio of the control/ratio of the background), and the fold change of the background (ratio of the background/ratio of the background) were calculated, and then the inhibition rate of binding between RORγ-LBD and a coactivator (hereinafter referred to as RORγ-coactivator binding inhibition rate) (%) was calculated from Formula 1: RORγ-coactivator binding inhibition rate(%)=(1−((Fold change with addition of the test compound)−(Fold change of the background))/((Fold change of the control)−(Fold change of the background)))×100 Formula 1

[2] = system: IL-17 production in mouse splenocytes; assay: Suppressive effect on IL-17 production by IL-23 stimulation in mouse splenocytes; assay type: cell-based; conditions: Splenocyte, 72 h, at 5 μmol/L of the test compound, 10 ng/mL human IL-23, 3 days, read-out: IL-17 production inhibition rate (%)
Protocol: Using mouse splenocytes, the suppressive effect of the cyclic amine derivative (I) or a pharmacologically acceptable salt thereof on IL-17 production by IL-23 stimulation was evaluated by a partially modified method mentioned in The Journal of Biological Chemistry, 2003, Vol. 278, No. 3, p. 1910-1914.
A single cell suspension was prepared from the spleen of C57BL/6J mice (male, 7 to 23 weeks old) (Charles River Laboratories Japan, Inc.) and splenocytes were prepared using Histopaque-1083 (Sigma-Aldrich Japan). The culture medium was used by adding 10% FBS (Gibco), 50 U/mL of penicillin 50 μg/mL of streptomycin (Gibco), 50 μmol/L of 2-mercaptoethanol (Gibco), and 100 U/mL of human IL-2 (Cell Science & Technology Institute, Inc.) to RPMI1640 medium (Gibco). The test compound was dissolved in DMSO and then diluted with the culture medium to have a final concentration of DMSO of 0.1% before use. Splenocytes (3×10^5 cells/well) prepared in the culture medium were seeded in wells of a 96-well flat-bottom plate (Corning Incorporated), the test compound and 10 ng/mL of human IL-23 (R & D systems, Inc.) were added thereto, and the cells were cultured at 37° C. under 5% CO2 for 3 days. A well without addition of human IL-23 and without addition of the test compound and a well with addition of human IL-23 and without addition of the test compound were prepared. After completion of the culture, the culture supernatant was collected and the IL-17 production amount in the supernatant was determined by ELISA method (R & D systems, Inc.).
The IL-17 production inhibition rate (%) was calculated from Formula 2. IL-17 production inhibition rate(%)=(1−((IL-17 production amount with addition of IL-23 and with addition of the test compound)−(IL-17 production amount without addition of IL-23 and without addition of the test compound))/((IL-17 production amount with addition of IL-23 and without addition of the test compound)−(IL-17 production amount without addition of IL-23 and without addition of the test compound)))×100 Formula 2

SMILES | inhibition at 33 µM [1] | inhibition at 5 µM [2]
O=C(Nc1ccc(-c2ccccc2OC(F)(F)F)c(Cl)c1)C1CCCCN1C(=O)COC(F)(F)F (stereo not drawn) [Example 8, N-(2-chloro-2′-(trifluoromethoxy)-[1,1′-biphenyl]-4-yl)-1-(2-(trifluoromethoxy)acetyl)piperidine-2-carboxamide] | 95.2% | 99.2%
CCS(=O)(=O)N1CCCCC1C(=O)Nc1ccc(-c2ccccc2OC(F)(F)F)c(Cl)c1 (stereo not drawn) [Example 14, N-(2-chloro-2′-(trifluoromethoxy)-[1,1′-biphenyl]-4-yl)-1-(ethylsulfonyl)piperidine-2-carboxamide] | 94% | 90.5%
CS(=O)(=O)N1CCCCC1C(=O)Nc1ccc(-c2ccccc2OC(F)(F)F)c(Cl)c1 (stereo not drawn) [Example 15, N-(2-chloro-2′-(trifluoromethoxy)-[1,1′-biphenyl]-4-yl)-1-(methylsulfonyl)piperidine-2-carboxamide] | 100% | 99.4%
O=CN1CCCCC1C(=O)Nc1ccc(-c2ccccc2OC(F)(F)F)c(Cl)c1 (stereo not drawn) [Example 16, N-(2-chloro-2′-(trifluoromethoxy)-[1,1′-biphenyl]-4-yl)-1-formylpiperidine-2-carboxamide] | 99.3% | 98%
NC(=O)N1CCCCC1C(=O)Nc1ccc(-c2ccccc2OC(F)(F)F)c(Cl)c1 (stereo not drawn) [Example 17, N^2-(2-chloro-2′-(trifluoromethoxy)-[1,1′-biphenyl]-4-yl)piperidine-1,2-dicarboxamide] | 93.8% | 91.8%
COC(=O)N1CCCCC1C(=O)Nc1ccc(-c2ccccc2OC(F)(F)F)c(Cl)c1 (stereo not drawn) [Example 19, methyl 2-((2-chloro-2′-(trifluoromethoxy)-[1,1′-biphenyl]-4-yl)carbamoyl)piperidine-1-carboxylate] | 93.4% | 99.8%
CS(=O)(=O)N1CCCC[C@@H]1C(=O)Nc1ccc(-c2ccccc2OC(F)(F)F)c(Cl)c1 [Example 21, (R)-N-(2-chloro-2′-(trifluoromethoxy)-[1,1′-biphenyl]-4-yl)-1-(methylsulfonyl)piperidine-2-carboxamide] | 98.2% | 99.8%
NC(=O)N1CCCC[C@@H]1C(=O)Nc1ccc(-c2ccccc2OC(F)(F)F)c(Cl)c1 [Example 22, (R)-N^2-(2-chloro-2′-(trifluoromethoxy)-[1,1′-biphenyl]-4-yl)piperidine-1,2-dicarboxamide] | 92.4% | 98.1%
O=C(Nc1ccc(-c2ccccc2OC(F)(F)F)c(Cl)c1)[C@H]1CCCCN1C(=O)C(F)(F)F [Example 23, (R)-N-(2-chloro-2′-(trifluoromethoxy)-[1,1′-biphenyl]-4-yl)-1-(2,2,2-trifluoroacetyl)piperidine-2-carboxamide] | 98.4% | 99.4%
CC(=O)N1CC[C@@H](F)C[C@@H]1C(=O)Nc1ccc(-c2ccccc2OC(F)(F)F)c(Cl)c1 [Example 25, (2R,4R)-1-acetyl-N-(2-chloro-2′-(trifluoromethoxy)-[1,1′-biphenyl]-4-yl)-4-fluoropiperidine-2-carboxamide] | 94.2% | 99.4%
CS(=O)(=O)N1CCC(F)(F)C[C@@H]1C(=O)Nc1ccc(-c2ccccc2OC(F)(F)F)c(Cl)c1 [Example 28, (R)-N-(2-chloro-2′-(trifluoromethoxy)-[1,1′-biphenyl]-4-yl)-4,4-difluoro-1-(methylsulfonyl)piperidine-2-carboxamide] | 101% | 98.6%
CSCCC(=O)N1CCCCC1C(=O)Nc1ccc(-c2ccccc2OC(F)(F)F)c(Cl)c1 (stereo not drawn) [Example 39, N-(2-chloro-2′-(trifluoromethoxy)-[1,1′-biphenyl]-4-yl)-1-(3-(methylthio)propanoyl)piperidine-2-carboxamide] | 98.8% | 99.2%

Second part, led by results:

inhibition at 33 µM [1] | SMILES | inhibition at 5 µM [2]
90.3% | COCC(=O)N1CCCCC1C(=O)Nc1ccc(-c2ccccc2OC(F)(F)F)c(Cl)c1 (stereo not drawn) [Example 4, N-(2-chloro-2′-(trifluoromethoxy)-[1,1′-biphenyl]-4-yl)-1-(2-methoxyacetyl)piperidine-2-carboxamide] | 99.7%
96.9% | O=C(Nc1ccc(-c2ccccc2OC(F)(F)F)c(Cl)c1)C1CCCCN1C(=O)CO (stereo not drawn) [Example 5, N-(2-chloro-2′-(trifluoromethoxy)-[1,1′-biphenyl]-4-yl)-1-(2-hydroxyacetyl)piperidine-2-carboxamide] | 99.5%
100% | CS(=O)(=O)NCC(=O)N1CCCCC1C(=O)Nc1ccc(-c2ccccc2OC(F)(F)F)c(Cl)c1 (stereo not drawn) [Example 10, N-(2-chloro-2′-(trifluoromethoxy)-[1,1′-biphenyl]-4-yl)-1-(2-(methylsulfonamide)acetyl)piperidine-2-carboxamide] | 98.6%
101% | CN(CC(=O)N1CCCCC1C(=O)Nc1ccc(-c2ccccc2OC(F)(F)F)c(Cl)c1)S(C)(=O)=O (stereo not drawn) [Example 13, N-(2-chloro-2′-(trifluoromethoxy)-[1,1′-biphenyl]-4-yl)-1-(2-(N-methylmethylsulfonamide)acetyl)piperidine-2-carboxamide] | 98.2%
95.9% | CN(C)C(=O)N1CCCCC1C(=O)Nc1ccc(-c2ccccc2OC(F)(F)F)c(Cl)c1 (stereo not drawn) [Example 18, N^2-(2-chloro-2′-(trifluoromethoxy)-[1,1′-biphenyl]-4-yl)-N^1,N^1-dimethylpiperidine-1,2-dicarboxamide] | 90.8%
94.7% | CS(=O)(=O)NCCC(=O)N1CCCCC1C(=O)Nc1ccc(-c2ccccc2OC(F)(F)F)c(Cl)c1 (stereo not drawn) [Example 32, N-(2-chloro-2′-(trifluoromethoxy)-[1,1′-biphenyl]-4-yl)-1-(3-(methylsulfonamide)propanoyl)piperidine-2-carboxamide] | 98.8%
97.2% | CN(CCC(=O)N1CCCCC1C(=O)Nc1ccc(-c2ccccc2OC(F)(F)F)c(Cl)c1)S(C)(=O)=O (stereo not drawn) [Example 36, N-(2-chloro-2′-(trifluoromethoxy)-[1,1′-biphenyl]-4-yl)-1-(3-(N-methylmethylsulfonamide)propanoyl)piperidine-2-carboxamide] | 96.9%
104% | CCN(CC(=O)N1CCCCC1C(=O)Nc1ccc(-c2ccccc2OC(F)(F)F)c(Cl)c1)S(C)(=O)=O (stereo not drawn) [Example 37, N-(2-chloro-2′-(trifluoromethoxy)-[1,1′-biphenyl]-4-yl)-1-(2-(N-ethylmethylsulfonamide)acetyl)piperidine-2-carboxamide] | 99.1%
98.7% | CS(=O)(=O)CCC(=O)N1CCCCC1C(=O)Nc1ccc(-c2ccccc2OC(F)(F)F)c(Cl)c1 (stereo not drawn) [Example 40, N-(2-chloro-2′-(trifluoromethoxy)-[1,1′-biphenyl]-4-yl)-1-(3-(methylsulfonyl)propanoyl)piperidine-2-carboxamide] | 98.2%
